Measurements reported in patent US10537559B2, “Isonitramine compound and composition containing same for preventing or treating metabolic diseases” (INJE UNIVERSITY INDUSTRY-ACADEMIC COOPERATION FOUNDATION, priority 2015, dated 2020).

Tests used:
C/EBPα = settings: FIG. 3; RT-PCR, β-actin internal control
Protocol: (§6) According to the manufacturer's instructions, total cell RNA of the undifferentiated adipocytes and differentiated adipocytes was extracted by using Trizol (available from Invitrogen).
(§7) The RNA (4 μg) was reverse-transcribed into cDNA by using M-MLV reverse transcriptase (available from Promega). Accordingly, the expression of peroxisome proliferator-activated receptor γ (PPARγ), CCAAT/enhancer binding protein-α (C/EBPα), adipocyte protein 2 (aP2), lipoprotein lipase (LPL), and adiponectin was each confirmed.
(§8) The variable number of cycles was used to identify the amplification occurred in the linear phase.
(§9) In the PCR amplification, β-actin was used as an internal control group. The PCR products were separated by using 2.0% agarose gel, followed by being visualized by RedSafe nucleic acid staining (available from Intron, Korea) and UV irradiation.

HIT-T15 cells = assay: Insulin secretion of HIT-T15 cells (insulin ELISA); type: cell-based; settings: FIG. 7
Protocol: To identify effects of isonitramine derivatives on insulin secretion, a type of insulin cells, e.g., HIT-T15 cells, were obtained by the Korean Cell Line Back, and then, subcultured. In detail, the HIT-T15 cells were cultured in a RPMI1640 medium (available from invitrogen. Co, USA) supplemented with 10% fetal bovine serum (FBS, available from invitrogen. Co, New Zealand 10091-148), 100 mu/ml of penicillin, and 100 μg/ml of streptomycin, under humidification conditions of a temperature of 37° C. and 5% CO2.
Insulin secretion influenced by (+)-isonitramine was measured according to the recommended method using insulin ELISA kit (Cat.10-1113-01, available from Mercodia Company). First, the HIT-T15 cells were loaded to a 96-well plate at a concentration of 5×10^4 cells/well, and cultured until reaching 70% to 80% cell confluency in an incubator at a temperature of 37° C. in a CO2 incubator. Then, the cells were pre-treated with 500 μM alloxan, which induces a pancreatic-specific toxic response, for 30 minutes. Afterwards, (+)-isonitramine was added to each well, and cultured for 24 hours. The culture solution was collected therefrom, and subjected to a centrifugation at a speed of about 15,000 rpm for 3 minutes. […] The changes resulted from the termination of the reaction were measured by using an ELISA-reader (VERSA max, micro-reader, MDS. Co, USA) at a wavelength of 450 nm.

LPL = assay: RT-PCR mRNA expression in adipocytes: LPL; type: cell-based, mouse; settings: FIG. 3, β-actin internal control
Protocol: as §6, §7, §8, §9

[1] = tested on: phosphoenolpyruvate carboxykinase (PEPCK); assay: PEPCK expression in zebrafish embryo (RT-PCR); type: in vivo; settings: FIG. 9, with 100 mM cAMP and 100 mM dexamethasone, 48 hours
Protocol: (§1) In the experiment performed to verify the effect on the amount of insulin secretion, the zebrafish embryo underwent 96 hour post-fertilization (hpf) was exuviated, and then, treated with isonitramine for 48 hours. In the experiment performed to verify the effect on gluconeogenesis, 100 mM cyclic AMP (cAMP) and 100 mM dexamethasone (DEX) were simultaneously treated with isonitramine, and then, cultured for 48 hours.
(§2) From the cultured embryo above, TRIzol (available from Invitrogen) was used to isolate mRNA, and the isolated RNA was synthesized to cDNA by using iScript cDNA Synthesis Kit (available from Bio-Rad). Afterwards, to amplify the cDNA, primers listed in Table 2 were used, wherein each primer was purchased from Bioneer.

[2] = tested on: 3T3-L1 mouse preadipocytes; assay: Adipocyte differentiation of 3T3-L1 preadipocytes (Nile red staining); type: cell-based; settings: FIG. 2A
Protocol: (§3) 3T3-L1 mouse preadipocytes were cultured in a Dulbecco's modified Eagle's medium (DMEM) supplemented with 10% newborn calf serum (Gibco BRL, NY, USA) and antibiotics (100 U/ml penicillin and 100 μg/ml streptomycin, Gibco BRL, NY, USA) in an incubator under humidification conditions of a temperature of 37 r and 5% CO2.
(§4) Afterwards, the cultured 3T3-L1 mouse cells were treated with 0.5 mM 1-methyl-3-isobutylxanthine purchased from Sigma (St. Louis, Mo.), 1 μM dexamethasone, 1 μg/mL insulin, and 10% fetal bovine serum (FBS, Gibco BRL), and then, cultured for 2 days to induce differentiation. After 2 days, the cultured medium was replaced with a fresh DMEM supplemented with 10% FBS and 1 μg/mL insulin. For the next 4 days, the cultured medium was replaced with a fresh DMEM supplemented with 10% FBS every day.
The undifferentiated or differentiated cells were washed three times with phosphate-buffered saline (PBS), and then, fixed with 4% […] (PFA) at room temperature for 1 hour. Afterwards, the resulting cells were washed three times with PBS, and stained with 0.5 μg/ml of nile red (available from Sigma, St. Louis, Mo.) for 10 minutes. Following the completion of the staining, the resulting cells were washed with PBS, and the nuclei thereof were stained again with 4′-6-diamidino-2-phenylindole, (DAPI, available from Invitrogen). […]

[3] = tested on: metabolic enzymes essential for carbohydrate absorption; assay: Selectivity of inhibition of carbohydrate metabolism enzymes (FIG. 4); type: biochemical; settings: 100 μM, as compared with Compound 4 to 6
Protocol: The mixtures were pre-cultured at a temperature of 37° C. for 10 minutes, and 25 μl of 0.5% starch solution was added thereto, followed by being cultured at a temperature of 37° C. for 10 minutes. Then, the mixtures were cultured again at a temperature of 100° C. for 5 minutes to stop the reaction, and the mixtures were cooled.
25 μl of DNS was added to the cooled reaction solutions, and a color reaction was induced at a temperature of 100° C. for 5 minutes. The resulting solutions were cooled again. The solutions in which the color reaction was induced were transferred to a 96-well plate, and absorbance thereof was measured at a wavelength of 540 nm by using a 96-well microplate reader.
Here, the inhibitory effect was calculated according to Equation 1: Enzymatic inhibitory activity=(1−Ax/A0)×100% [Equation 1] • Ax indicates an absorbance value of a control group • A0 indicates an absorbance value of a test group upon treatment of isonitramine

adiponectin = assay: RT-PCR mRNA expression in adipocytes: adiponectin; type: cell-based, mouse; settings: FIG. 3, β-actin internal control
Protocol: as §6, §7, §8, §9

porcine α-amylase = molecular target: T1, porcine α-amylase (Sus scrofa, UniProt P00690); assay: Inhibitory effect on porcine α-amylase; type: biochemical; settings: FIG. 4; 100 μM, pH 6.8, starch substrate
T1 construct: purchased Sigma
T1 sequence (P00690 16-511): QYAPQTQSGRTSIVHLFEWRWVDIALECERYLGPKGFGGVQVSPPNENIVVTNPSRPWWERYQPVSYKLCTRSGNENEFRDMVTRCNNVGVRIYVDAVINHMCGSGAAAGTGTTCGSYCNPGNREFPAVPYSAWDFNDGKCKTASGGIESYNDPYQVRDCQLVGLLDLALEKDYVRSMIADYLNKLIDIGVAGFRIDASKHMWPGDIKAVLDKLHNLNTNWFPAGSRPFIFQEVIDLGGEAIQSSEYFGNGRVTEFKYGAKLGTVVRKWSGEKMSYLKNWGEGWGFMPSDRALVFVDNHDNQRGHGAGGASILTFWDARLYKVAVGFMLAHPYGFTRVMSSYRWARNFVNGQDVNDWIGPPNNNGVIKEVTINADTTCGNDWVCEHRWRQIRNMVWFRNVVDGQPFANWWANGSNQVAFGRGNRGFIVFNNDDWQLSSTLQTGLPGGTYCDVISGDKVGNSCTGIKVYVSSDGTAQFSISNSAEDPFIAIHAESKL
Protocol: (§5) A glucose assay kit was purchased for use from Youngdong Company (Seoul, Korea). In addition, from Sigma Company, porcine α-amylase, yeast α-glucosidase, 3,5-dinitrosalicylic acid (DNS), p-nitrophenol glucoside (pNPG), rat intestinal acetone powder, sucrose, and maltose were purchased. Soluble starch was obtained from Samchun Chemical Company (Seoul, Korea), and Acarbose was purchased from Tokyo chemical industry Company (Tokyo, Japan).
5 μl of α-amylase (0.1 U/mL) was diluted with 50 mM phosphate buffer (pH 6.8), and the diluted solution was mixed with each of 100 μM (+)-isonitramine (1) or Compound 2 to 6 of Example 1. In addition, as a positive control group, Acarbose was mixed at the same concentration with (+)-isonitramine (1). […]
25 μl of DNS was added to the cooled reaction solutions, and a color reaction was induced at a temperature of 100° C. for 5 minutes. […] The solutions in which the color reaction was induced were transferred to a 96-well plate, and absorbance thereof was measured at a wavelength of 540 nm by using a 96-well microplate reader.
Here, the inhibitory effect was calculated according to Equation 1: Enzymatic inhibitory activity=(1−Ax/A0)×100% [Equation 1] • Ax indicates an absorbance value of […] upon treatment of isonitramine

PPARγ = assay: RT-PCR mRNA expression in adipocytes: PPARγ; type: cell-based, mouse; settings: FIG. 3, β-actin internal control
Protocol: as §6, §7, §8, §9

[4] = tested on: 3T3-L1 mouse preadipocytes; assay: Analysis of triglyceride concentration in differentiated adipocytes; type: cell-based; settings: FIG. 2B; adipocytes differentiated 8 days with 100 μM or 500 μM
Protocol: as §3, §4
The concentration of triglyceride in the cells was measured by using a triglyceride reagent purchased from Sigma and a free glycerol reagent.
The adipocytes were differentiated for 8 days with (+)-isonitramine 1 at a concentration of 100 μM or 500 μM, in a 6-well plate.
To analyze the concentration of triglyceride in the cells, the cells were washed with PBS, and then, lysed with 100 μl of a lysis buffer. […]
Following the completion of the culturing, the absorbance of the cells was measured by using a spectrophotometer at a wavelength of 540 nm.

zf preproinsulin (insa) = assay: Insulin expression in zebrafish embryo (RT-PCR); type: in vivo; settings: FIG. 8; zebrafish embryo 96 hpf treated 48 hours
Protocol: as §1, §2

yeast α-glucosidase = molecular target: T2, yeast α-glucosidase (Saccharomyces cerevisiae, UniProt P53341); assay: Inhibitory effect on yeast α-glucosidase (pNPG substrate); type: biochemical; settings: FIG. 4; 100 μM, pH 5.6, pNPG substrate
T2 construct: purchased Sigma
Protocol: as §5
5 μl of […] (0.1 U/mL) was diluted with 50 mM sodium acetate buffer (pH 5.6), and the diluted solution was mixed with each of 100 μM (+)-isonitramine (1) or Compound 2 to 6 of Example 1. In addition, as a positive control group, Acarbose was mixed at the same concentration with (+)-isonitramine (1).
The mixtures were pre-cultured at a temperature of 37° C. for 10 minutes, and 25 μl of pNPG was added thereto, followed by being cultured at a temperature of 60° C. for 10 minutes. Then, 1N NaOH was added thereto to stop the reaction.
Afterwards, the resulting solution in which a color reaction was induced was transferred to a 96-well plate, and absorbance thereof was measured at a wavelength of 405 nm by using a 96-well microplate reader.

zebrafish larvae = assay: Zebrafish toxicity (FIG. 5); type: in vivo; settings: zebrafish model
[5] = tested on: 3T3-L1 mouse preadipocytes; assay: Cytotoxicity in adipocyte differentiation experiment; type: cell-based; settings: FIG. 3; adipocytes
zebrafish = assay: Postprandial hyperglycemia in diabetic-inducible (streptozocin) zebrafish; type: in vivo; settings: FIG. 6; STZ-injected zebrafish fed flake mixed with compound at various concentrations for 1 hour
Protocol: The zebrafish was anesthetized by placing it in water at a temperature of 8° C. for 20 seconds.
For intraperitoneal injection, 350 mg/kg of a solution of 0.9% streptozocin (available from Sigma, St. Louis, Mo.) in 0.09% NaCl solution was injected with a syringe having 25 gauge needle (available from Trajan Scientific, Australia). Here, to a control group of zebrafish, the same amount of PBS was injected intraperitoneally. After the completion of the injection, the test and control groups of zebrafish were bread at a temperature of 24° C.
The zerafish was subjected to intraperitoneal injection of STZ or PBS three times (350 mg/kg) for a week. After the final injection, the zerafish was fed with commercial flake food (available from Tetrabits tropical flakes, Tetra, Germany) for 5 days.
After fasting for 24 hours, the zebrafish to which PBS was injected was fed with commercial flask food, and the zebrafish to which STZ was injected was fed with flake mixed with (+)-isonitramine (1) at various concentrations, for 1 hour. Afterwards, plasma blood of each zebrafish was enzymatically measured by using a glucose trinder kit.

aP2 = assay: RT-PCR mRNA expression in adipocytes: aP2; type: cell-based, mouse; settings: FIG. 3, β-actin internal control
Protocol: as §6, §7, §8, §9

T2 sequence (P53341 whole entry): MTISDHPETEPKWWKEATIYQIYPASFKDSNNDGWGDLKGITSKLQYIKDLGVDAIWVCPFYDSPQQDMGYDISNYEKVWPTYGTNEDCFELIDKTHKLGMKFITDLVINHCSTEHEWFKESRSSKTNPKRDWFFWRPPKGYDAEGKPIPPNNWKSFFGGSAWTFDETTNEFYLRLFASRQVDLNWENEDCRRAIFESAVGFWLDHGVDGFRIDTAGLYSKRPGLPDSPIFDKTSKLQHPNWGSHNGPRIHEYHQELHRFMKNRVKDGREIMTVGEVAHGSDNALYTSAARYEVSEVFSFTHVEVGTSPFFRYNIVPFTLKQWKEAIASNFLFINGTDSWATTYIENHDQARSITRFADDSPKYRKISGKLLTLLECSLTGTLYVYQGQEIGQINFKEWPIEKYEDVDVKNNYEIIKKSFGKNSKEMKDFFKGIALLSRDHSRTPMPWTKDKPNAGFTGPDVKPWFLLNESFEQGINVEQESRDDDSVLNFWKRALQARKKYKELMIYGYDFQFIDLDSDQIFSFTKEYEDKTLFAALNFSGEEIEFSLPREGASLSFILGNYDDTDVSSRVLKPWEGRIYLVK

Row | Structure (SMILES) | mRNA expression of C/EBPα (C/EBPα) | insulin secretion (HIT-T15 cells; HIT-T15 cells pre-treated with 500 μM alloxan 30 minutes, then compound 24 hours) | mRNA expression of LPL (LPL) | inhibitory effect on the expression of PEPCK [1] | differentiation of 3T3-L1 mouse preadipocytes into mature adipocytes [2] | selective inhibitory effects on metabolic enzymes essential for carbohydrate absorption [3] | mRNA expression of adiponectin (adiponectin) | inhibition of α-amylase (porcine α-amylase) | mRNA expression of PPARγ (PPARγ) | concentration of triglyceride [4] | expression of insulin (zf preproinsulin (insa)) | inhibition of α-glucosidase (yeast α-glucosidase) | cardiovascular toxicity (zebrafish larvae) | developmental toxicity (zebrafish larvae) | cytotoxicity [5] | blood glucose (zebrafish) | mRNA expression of aP2 (aP2) | insulin secretion (HIT-T15 cells; HIT-T15 cells treated with 500 μM alloxan, normal state 33.39±1.12 ng/mL (n=4))
1 | O[C@@H]1CCCC[C@]12CCCNC2 [(+)-isonitramine (1), (+)-isonitramine] | inhibited | increasing the insulin secretion in a concentration-dependent manner | weakened | significantly increased in proportion to the concentration | inhibited the differentiation | selective inhibitory effects | weakened | hardly inhibited | inhibited | decreased the concentration of triglyceride in a concentration-dependent manner | increased | inhibiting | no | no | without cytotoxicity | reduction of blood glucose in a concentration-dependent manner | weakened | –
2 | O=C1NC(=O)C(=O)C(=O)N1 [alloxan, reference compound] | – | – | – | – | – | – | – | – | – | – | – | – | – | – | – | – | – | 18.92 ± 0.43 ng/mL
